From patent US6514914B1, “Inhibition of phospholipase D” (priority 1999, dated 2003)
“Also recorded” adds a separate entry of the source. Like-named read-outs stand apart in the source and are kept apart here.

Assays:
[1] = system: mitochondrial PLD of sweet corn kernel; experiment: Phospholipase D activity by release of radiolabelled choline, mitochondrial fraction; assay type: biochemical, Zea mays
Protocol: (§1) Protein Extraction. Sweet corn (Zea mays L. cv Peaches and Cream) was used for this study. The kernels were obtained locally from a grocery store and stored frozen at −20° C. until it was used for protein extraction. Frozen kernels were homogenized in 0.1 m Tris-HCl buffer at pH 7.5 essentially as described by Pinhero et al. (1998), except that sucrose was not included in the homogenizing buffer. The mitochondrial, microsomal and the cytosolic fractions were collected by differential centrifugation (Pinhero et al., 1998). The fraction comprising the starch granules was removed by centrifuging the samples at 2500×g for 10 minutes. The resulting supernatant was subjected to centrifugation at 15,000×g to pellet the mitochondrial membrane fraction (Edwards and Gardestrom, 1987). The supernatant from this step was centrifuged at 105,000×g to pellet the microsomal membranes. The supernatant comprising the cytosol was subjected to ammonium sulphate fractionation at 30 and 60% saturation. The precipitated protein was collected by centrifugation at 15000×g and redissolved in 10 mM Tris-HCl pH 7.0 and dialyzed overnight with the same buffer, also containing 0.1 mM DTT, with two changes of 2 L each. Protein concentration was determined by the method of Bradford (1976) using bovine serum albumin as a standard. All steps of protein extraction procedure were carried out at 4° C.
(§2) Enzyme Assay. PLC activity was determined as described by Pinhero et al. (1998) by measuring the release of radiolabelled choline from L3-phosphatidyl(N-methyl-^3H) choline,1,2-dipalmitoyl at 23° C. The basic assay mixture contained 0.1 M Tris-HCl (pH 7.5), 0.2 mM EGTA, membrane or cytosol protein (2.5 μg), and approximately 100,000 dpm of choline-labelled phosphatidylcholine in 0.1% (v/v) Triton-X 100 (0.01% final), to make a total volume of 1 ml. To study the regulation of PLD by alcohols, aldehydes and metal ions, the appropriate amounts of the reagent solutions were added to the basic reaction mixture. Similarly, citrate and Tris-HCl buffers were used to study the effect of pH on PLD activity. The reaction was terminated after 10 minutes by adding 100 μL of 4 N HCl followed by 1 mL of chloroform/methanol (2:1, v/v) and left overnight. The amount of [^3H]choline released during the reaction was determined by mixing a 0.5 ml aliquot of the aqueous phase directly into 5 ml of scintillation fluid (Ecolume, ICN) and determining the amount of radiolabel using a Beckman LS 6800 Scintillation counter (Beckman Instruments Inc.).

[2] = system: phospholipase D in sweet corn kernel; experiment: Phospholipase D activity by release of radiolabelled choline, fractions not distinguished; assay type: biochemical, Zea mays; conditions: sweet corn kernel preparations, fraction not specified
Protocol: Protein Extraction. Sweet corn (Zea mays L. cv Peaches and Cream) was used for this study. The kernels were obtained locally from a grocery store and stored frozen at −20° C. until it was used for protein extraction. […] The fraction comprising the starch granules was removed by centrifuging the samples at 2500×g for 10 minutes. […] The supernatant from this step was centrifuged at 105,000×g to pellet the microsomal membranes. The supernatant comprising the cytosol was subjected to ammonium sulphate fractionation at 30 and 60% saturation. The precipitated protein was collected by centrifugation at 15000×g and redissolved in 10 mM Tris-HCl pH 7.0 and dialyzed overnight with the same buffer, also containing 0.1 mM DTT, with two changes of 2 L each. […] All steps of protein extraction procedure were carried out at 4° C.
as §2, with “PLC activity was determined as described by Pinhero et al. (1998) by measuring the release of radiolabelled choline from L3-phosphatidyl(N-methyl-^3H) choline,1,2-dipalmitoyl at 23° C.” left out
Protein Extraction: Sweet corn (Zea mays L. cv Peaches and Cream) was used for this study. The kernels were obtained locally from a grocery store and stored frozen at −20° C. until used. Frozen kernels were homogenized in 0.1 M Tris-HCl buffer at pH 7.5, containing 1 mM dithiothreitol, I mM phenylmethanesulfonylfluoride, 2 mM EDTA and 1 mM EGTA. The homogenate was filtered through four layers of cheese clothe. After removing the debris, the homogenate was subjected to differential centrifugation to separate mitochondria, microsomes and cytosol. The fraction comprising starch granules was removed by centrifuging the samples at 2500×g for 10 min. The resulting supernatant was subjected to centrifugation at 15000×g to pellet the mitochondrial membrane fraction. The supernatant from this step was centrifuged at 105,000×g to pellet the microsomal membranes. The supernatant was subjected to ammonium sulfate fractionation at 30 and 60% saturation to precipitate the cytosolic proteins. The precipitated proteins were pelleted by centrifugation at 15000×g and dissolved in 10 mM Tris HCI, pH 7.5, and dialyzed overnight in the same buffer also containing 0.1 mM DTT. Resuspended microsomal, mitochondrial membrane preparation and the cytosolic proteins were stored at −80° C. until used for phospholipase D assays.
Assay for Phospholipase D: Phospholipase D activity was determined by the liberation of choline from choline methyl labelled dipalmitoylphosphatidylcholine [L3-phosphatidyl (N-methyl-3H) choline 1,2-dipalmitoyl]. The basic assay mixture contained 0.1 M. Tris-HCl, pH 7.5, 0.2 mM EGTA, 1-2.5 ug of membrane or cytosolic protein (precipitated at 60% ammonium sulfate saturation) and 100,000 dpm of choline-labelled phosphatidylcholine in 0.1% Triton X-100 (final 0.01%), in a total volume of 1 ml. Hexanal and hexanol was added to the assay mixture and incubated for 5 min prior to the addition of substrate. The reaction was terminated after 10 min by the addition of 100 uL of 4N HCl, followed by 1 ml of chloroform: methanol (2:1 v/v) and left overnight.

[3] = system: cytosolic PLD of sweet corn kernel; experiment: Phospholipase D activity by release of radiolabelled choline, cytosolic fraction; assay type: biochemical, Zea mays
Protocol: as §1, §2

[4] = system: microsomal PLD of sweet corn kernel; experiment: Phospholipase D activity by release of radiolabelled choline, microsomal fraction; assay type: biochemical, Zea mays
Protocol: as §1, §2

[5] = system: PLD in leaf and root tissues of maize seedlings; conditions: cited from earlier work
[6] = system: parsley leaves; experiment: Parsley leaf senescence, excised leaves incubated in the dark for fourteen days; conditions: increasing amounts in 2.5 ml water with 0.001% Tween-20, fourteen days in the dark
Protocol: Mature parsley leaves were excised and floated in water to randomize the leaves. After thorough washing 10 leaflets were incubated in petri plates lined with Whatman #1 filter paper and containing 2.5 ml of water containing various amounts of hexanal and 0.001% final Tween −20. Controls with water alone and Tween −20 were also incubated. The petri plates were incubated in the dark for fourteen days. The leaves were removed, chopped to fine pieces, and portions used for protein and pigment analyses. For protein analysis, a known amount of leaf segments (usually 0.6-0.7 g) were ground with 0.1 N NaOH (1 ml). After removing the debris by centrifugation, protein was determined in aliquots, using the dye-binding method by Bradford, 1976. To measure the pigments, leaf segments were extracted with 5 ml of 95% ethanol overnight in the dark. The absorbance readings were measured at […] to estimate chlorophyll a, at 647 nm for chlorophyll b and at […] for carotenoid. The data presented are the mean of two independent estimations from two sets of leaves incubated separately.

[7] = system: phospholipase D; conditions: reported in plants; cited from earlier work
[8] = system: PLD; conditions: animal systems; cited from earlier work
[9] = acetaldehyde, concentration not stated (discussion)
[10] = 0.2 mM of added calcium (10 μM of free calcium)
[11] = maximal stimulation, at 0.5 mM of added calcium, 0.2 mM EGTA in assay
[12] = alcohol added to the assay mixture
[13] = increasing alcohol in the assay mixture
[14] = maximal stimulation, at 50 μM magnesium chloride

Compound: [Cl-].[K+] [KCl, potassium chloride]
- effect on mitochondrial PLD activity ([1]; monovalent salt up to 5 mM): nearly similar activity with respect to their respective controls
- effect on PLD activity [2]: did not affect PLD activity substantially; also recorded: did not appear to have any major effects on PLD activity
- effect on cytosolic PLD activity ([3]; monovalent salt up to 5 mM): nearly similar activity with respect to their respective controls
- effect on microsomal PLD activity ([4]; monovalent salt up to 5 mM): inhibited

Compound: CC=O [acetaldehyde]
- inhibition of mitochondrial PLD activity ([1]; 2% v/v acetaldehyde): 80%
- inhibition of mitochondrial PLD activity [1, 9]: over 75%
- inhibition of cytosolic PLD activity ([3]; 2% v/v acetaldehyde): 80%
- inhibition of cytosolic PLD activity [3, 9]: over 75%
- inhibition of microsomal PLD activity ([4]; 2% v/v acetaldehyde): 80%
- inhibition of microsomal PLD activity [4, 9]: over 75%

Compound: [Ca+2] [calcium]
- effect on mitochondrial PLD activity ([1]; 0.5 mM of added calcium, 0.2 mM EGTA in assay): marginal stimulation
- effect on PLD activity [2]: marginally stimulated
- stimulation of cytosolic PLD activity [3, 10]: ~40%
- stimulation of cytosolic PLD activity [3, 11]: 40-50%
- effect on PLD activity [5]: not stimulated
- stimulation of microsomal PLD activity [4, 10]: ~40%
- stimulation of microsomal PLD activity [4, 11]: 40-50%

Compound: CCO [ethanol]
- effect on mitochondrial PLD activity [1, 12]: stimulation in the activity
- stimulation of mitochondrial PLD activity ([1]; maximal stimulation, at 0.25% ethanol (v/v)): 100%
- effect on cytosolic PLD activity ([3]; ethanol levels above 0.5%): inhibited
- effect on cytosolic PLD activity [3, 13]: marginal stimulation initially followed by a decline in activity
- effect on microsomal PLD activity [4]: stimulation in the activity
- stimulation of microsomal PLD activity [4]: 50%

Compound: CCCCCC=O [hexanal]
- effect on PLD activity [2]: potent inhibition of PLD activity; also recorded: effective inhibitors of PLD activity

Compound: CCCCCCO [hexanol]
- effect on PLD activity [2]: potent inhibition of PLD activity; also recorded: effective inhibitors of PLD activity
- amount of chlorophyll in parsley leaves versus controls [6]: greater amounts of chlorophyll than controls
- senescence or aging of parsley leaves [6]: less senescence or aging has occurred

Compound: [Cl-].[Cl-].[Mg+2] [magnesium chloride]
- effect on PLD activity [2]: slightly higher than that of calcium ions
- stimulation of cytosolic PLD activity [3, 14]: ~100%
- effect on PLD activity [5]: not stimulated
- stimulation of microsomal PLD activity [4, 14]: ~100%

Compound: CCCO [propanol]
- effect on mitochondrial PLD activity [1, 12]: only a marginal increase
- effect on PLD activity [2]: marginal
- effect on cytosolic PLD activity [3, 13]: initial promotion of cytosolic activity followed by a decline
- promotion in microsomal PLD activity ([4]; between 0.1 and 1% (v/v) propanol): 20-25%

Compound: [Cl-].[Na+] [sodium chloride]
- effect on mitochondrial PLD activity ([1]; monovalent salt up to 5 mM): remained nearly the same
- effect on PLD activity [2]: did not affect PLD activity substantially; also recorded: did not appear to have any major effects on PLD activity
- effect on cytosolic PLD activity ([3]; monovalent salt up to 5 mM): remained nearly the same
- effect on microsomal PLD activity ([4]; monovalent salt up to 5 mM): remained nearly the same

Compound: Lysophosphatidylethanolamine
- inhibition of phospholipase D [7]: potent inhibitor of phospholipase D

Compound: hydroxy hexenal
- effect on PLD [8]: promoters of PLD

Compound: n-butanol
- effect on mitochondrial PLD activity [1, 12]: decline in activity
- effect on PLD activity [2]: marginal
- effect on cytosolic PLD activity [3, 13]: decline in activity
- effect on microsomal PLD activity [4, 12]: decline in activity
